The values that follow come from patent US6875418B2, “Method of early detection of Duchenne muscular dystrophy and other neuromuscular disease” (Mouse Specifics, Inc., priority 2001, dated 2005).

For assay [1], the system named is C57 mice. Briefly: Autonomic blockade, ECG heart rate and heart-rate variability in conscious C57 control mice. The assay is classed as in vivo, mouse. As for the experimental part: (§1) Male control C57BL/10ScSn (C57, n=15) and male mutant (mdx, n=15) mice (10-12 weeks old) were obtained from The Jackson Laboratory, Bar Harbor, Me. The animals were housed in standard conditions within the Animal Resource Facility at the Beth Israel Deaconess Medical Center. Handling and care of mice were consistent with federal and institutional guidelines.
(§2) ECGs were recorded in conscious mice as follows. Briefly, mice were gently removed from their cages and positioned on the ECG recording platform (AnonyMOUSE, Mouse Specifics, Inc., Boston, Mass.). An array of gel-coated ECG electrodes were embedded in the floor of the platform and spaced to provide contact between the electrodes and animals' paws. The electrodes were connected to an amplifier by three shielded conductive leads. As even modest handling of mice induces significant alterations in heart-rate, each mouse was permitted to acclimatize for 10 min prior to collection of baseline data. The signals were digitized with 16-bit precision at a sampling rate of 2000 samples/second. When mice were sitting or otherwise positioned such that the paws were not in contact with three electrodes, the output from the amplifier was discarded. Only data from continuous recordings of 15-25 ECG signals were used in the analyses.
Analyses of the ECGs were performed as described as follows. Each signal was analyzed using e-MOUSE, internet-based physiologic waveform analyses software. The program incorporates Fourier analyses and linear time-invariant digital filtering of frequencies below 2 Hz and above 100 Hz to minimize signal environmental disturbances. The software uses a peak detection algorithm to find the peak of the R-waves and to calculate heart-rate (HR). The inverted and/or biphasic portions of the T wave was included in calculations of the QT interval. The QT intervals were rate corrected (QTc) by an algorithm developed for use in mice. The software plots its interpretation of P, Q, R, S, and T for each beat so that spurious data resulting from unfiltered noise or motion artifacts may be rejected. The mean of the ECG time intervals for each set of waveforms is then calculated.
(§3) Heart-rate variability (HRV) was calculated as the standard deviation of all R—R intervals for each set of ECG signals. The coefficient of variance (CV,%) was calculated as the ratio of mean HRV to mean heart-rate.
Parasympathetic and sympathetic nervous system control of heart-rate regulation were investigated by pharmacological blockade. Mice received intraperitoneal administration of atropine (0.5 mg/kg) for parasympathetic blockade (n=15 mdx, n=15 C57), propranolol (1 mg/kg) for sympathetic blockade (n=10 mdx, n=7 C57), and atropine (0.5 mg/kg) plus propranolol (1 mg/kg) for combined β-adrenergic and muscarinic cholinergic blockade (n=10 mdx, n=7 C57). Baseline ECGs were recorded within 5 min prior to each administration and after a 5-10 min equilibrium phase after drug administration to allow for HR stabilization. The pharmacological interventions were performed on different days to prevent interference between drugs. […]
To study the effect of autonomic blockers on dystrophin deficient mice, parasympathetic and sympathetic nervous system control of heart-rate regulation were investigated by pharmacological blockade. […] Baseline ECGs were recorded within 5 min prior to each administration and after a 5-10 min equilibrium phase after drug administration to allow for HR stabilization.

The test system of assay [2] is mdx mice. Briefly: Autonomic blockade, ECG heart rate and heart-rate variability in conscious mdx mice. The assay is classed as in vivo, mouse. As for the experimental part:
as §1, §2
Analyses of the ECGs were performed as described as follows. Each signal was analyzed using e-MOUSE, internet-based physiologic waveform analyses software. […] The mean of the ECG time intervals for each set of waveforms is then calculated.
as §3
Parasympathetic and sympathetic nervous system control of heart-rate regulation were investigated by pharmacological blockade. […] Baseline ECGs were recorded within 5 min prior to each administration and after a 5-10 min equilibrium phase after drug administration to allow for HR stabilization. […]

The test system of assay [3] is nNOS -/- mice. The experiment in a line: Autonomic blockade, ECG heart rate and heart-rate variability in conscious nNOS -/- mice.
Assay [4] relates to mdx mice. Briefly: Baroreflex pressor response to phenylephrine after β-adrenergic blockade in mdx mice. The assay is classed as in vivo, mouse. The settings on record: phenylephrine 3 mg/kg i.p. after propranolol 1 mg/kg. As for the experimental part:
as §2
(§4) Analyses of the ECGs were performed as described as follows. Each signal was analyzed using e-MOUSE, internet-based physiologic waveform analyses software. The program incorporates Fourier analyses and linear time-invariant digital filtering of frequencies below 2 Hz and above 100 Hz to minimize signal environmental disturbances. […] The mean of the ECG time intervals for each set of waveforms is then calculated.
as §3
(§5) Mice were administered intraperitoneal phenylephrine (3 mg/kg) after β-adrenergic blockade with propranolol (1 mg/kg) to test for a baroreflex-mediated cardio-inhibitory response (n=10 mdx, n=7 C57).16,21 After baseline recordings, ECGs were recorded after a 5-10 min equilibrium phase following propranolol administration to allow for HR stabilization, and then within 2 min following phenylephrine administration. Changes in ECG indices following phenylephrine were determined relative to those recorded following propranolol administration. […]

Assay [5] has as its system nNOS -/- mice. The experiment in a line: Baroreflex pressor response to phenylephrine in nNOS -/- mice. The assay is classed as in vivo, mouse.
The next assay relates to B6129 mice. Briefly: Baroreflex pressor response to phenylephrine in B6129 control mice. Type of assay: in vivo, mouse.
The subject of assay [6] is C57 mice. Briefly: Baroreflex pressor response to phenylephrine after β-adrenergic blockade in C57 mice. The settings on record: phenylephrine 3 mg/kg i.p. after propranolol 1 mg/kg. The assay is classed as in vivo, mouse. As for the experimental part:
as §2, §4, §3, §5

[7] abbreviates: C57 mice, i.p., 5-10 min after drug vs baseline, atropine 0.5 mg/kg, propranolol 1 mg/kg.
Where [8] appears, read: within 2 min, relative to post-propranolol.
The mark [9] stands for this setting: phenylephrine after propranolol.

`CC(C)NCC(O)COc1cccc2ccccc12` (stereo not shown) [propranolol]: the “change in HRV” value in the assay with C57 mice [1] (setting [7]) is reported as “more significant in C57 than mdx mice”. For the same compound, the “change in HR” value in the assay on C57 mice [1] (C57 mice, i.p., 5-10 min after drug vs baseline, atropine 0.5 mg/kg, propranolol 1 mg/kg, mean±SE) was −122±53 bpm; in the assay with mdx mice [2] (mdx mice, i.p., 5-10 min after drug vs baseline, atropine 0.5 mg/kg, propranolol 1 mg/kg, mean±SE) it was −60±27 bpm.

Take `CN1[C@@H]2CC[C@H]1C[C@@H](OC(=O)C(CO)c1ccccc1)C2` (stereo partly shown) [atropine]: the “direction of heart-rate change in individual mice” value is “increased in all but 2 of the C57 mice” in the assay on C57 mice [1] (C57 mice n=15, atropine 0.5 mg/kg i.p.) and “decreased in all 15 mdx mice” with mdx mice [2] (mdx mice n=15, atropine 0.5 mg/kg i.p.). Also, the “HRV after atropine administration” value with C57 mice [1] (C57 mice, atropine 0.5 mg/kg i.p., baseline 2.7±0.9 ms) turned out to be 0.5 ± 0.9 ms; in the assay with nNOS -/- mice [3] (from 2.6±0.1 ms, P<0.05) it was 0.7 ± 0.1 ms. The “change in HRV” value in the assay with C57 mice [1] (setting [7]) is -1.6 ± 0.7 ms. In addition, the “HR decreased by” value with mdx mice [2] (mdx mice, atropine 0.5 mg/kg i.p., FIG. 2a legend) came to 90±14 bpm. For the same compound, the “directional change in HR in response to drug” value in the assay on nNOS -/- mice [3] (FIG. 5) is “significantly increased HR”. Further, the “HR after atropine administration” value with nNOS -/- mice [3] (baseline 686±22 bpm, P=0.07) amounted to 721±12 bpm. Further, the “CV after atropine administration” value in the assay on nNOS -/- mice [3] (from 2.7±0.8%, P<0.05) is recorded as 0.8±0.1%.

`CNC[C@H](O)c1cccc(O)c1` [phenylephrine]: the figures for the “CV after phenylephrine administration” value in the assay with mdx mice [4] and with C57 mice [6] were 6.0±1.7% and 15.8±2.4%, respectively. Besides, the entries for the “HRV after phenylephrine administration” value in the assay with mdx mice [4] and in the assay on C57 mice [6] were 8.5 ± 2.5 ms and 28.6 ± 4.1 ms, respectively. Besides, the “change in HR after phenylephrine” value is on record as −132±27 bpm with mdx mice [4] (setting [8]), −288±39 bpm in the assay on nNOS -/- mice [5] (setting [9]), −360±6 bpm in the assay with B6129 mice (setting [9]) and −312±27 bpm with C57 mice [6] (setting [8]). Further, the “increase in HRV after phenylephrine” value in the assay with nNOS -/- mice [5] (Example 4) is listed as “+13.3±3.7 ms”; in the assay with B6129 mice (Example 4), “+11.8±3.7 ms”.
